Measured values reported in patent US9267021B2 (KOSSAN SDN BHD, priority 2010, dated 2016).
Several values for one entry are separate records, joined by “and”; a condition that tells them apart may be missing. Identical values can stand only once. Like-named read-outs stand apart in the source and are kept apart here.

Columns and labels:
[1] = system: guinea pig; conditions: for erythema evaluation point, individual animal: group IV sensitized with DNCB; for ave. eval. (average of evaluation point) / positive ratio: positive comparison group IV sensitized with DNCB 0.1 w/v %
Protocol: Skin-Sensitize Test (Maximization Test)
This test is carried out by Juridical Foundation “Food and Medicine Safety Center” (Hatano-shi, Kanagawa) based on “Basic view about biological safety test necessary for petition of recognition of production (import) of medical device” (13.02.2003, Consideration of Medicine No. 0213001″ and “Reference materials regarding basic view of biological safety test” (19.03.2003, Examination of medical device No. 36).
Using methanol extraction of Verte Kimax 7th Sense, biological safety evaluation is obtained. And aiming to compare with Verte 710N, skin-sensitize test (maximization test) is carried out on a guinea pig using methanol extraction of Verte Kimax 7th Sense.
At the preparation of prescribing subject, methanol extract of Verte Kimax 7th Sense (hereinafter, shortened to 7th Sense-M) or methanol extract of Verte 710N (hereinafter, shortened to 710N-M) is suspended in ethanol by proportion of 1 mL to the extract obtained 1 g of analyte used for extraction, and 100 v/v % 7th Sense-M ethanol suspension and 100 v/v % 710N-M ethanol suspension are obtained. Further, BLANK obtained from methanol alone is poured into same amount of ethanol as used at the preparation of suspension of 7th Sense-M or 710N-M and 100 v/v % blank suspensions are prepared. In first skin-sensitize test, 100 v/v % 7th Sense-M ethanol suspension and 100 v/v % 710N-M ethanol suspension are replaced with same amount of olive oil, and 100 v/v % 7th Sense-M olive oil suspension and 100 v/v % 710N-M olive oil suspension are prepared. In second skin-sensitize test, 100 v/v % 7th Sense-M ethanol suspension and 100 v/v % 710N-M ethanol suspension are replaced with same amount of olive oil, and 100 v/v % 7th Sense-M olive oil suspension and 100 v/v % 710N-M olive oil suspension are prepared. In causing, 100 v/v % 7th Sense-M ethanol suspension and 100 v/v % 710N-M ethanol suspension are prepared by adding ethanol as stepwise. Further, 100 v/v % corresponding volume blank ethanol solution is used as is.
In first skin-sensitize test (treatment first day) 10 v/v % 7th Sense-M olive oil suspension or 10 v/v % 710N-M olive oil suspension and Freund's complete adjuvant are injected by intradermal injection in upper part of shoulder bone of a guinea pig. At 7 days after treatment, 10 v/v % sodium lauryl sulfate is open spread on region including intradermal injection part, and next day (8 days after treatment) 100 v/v % 7th Sense-M olive oil suspension or 100 v/v % 710N-M olive oil suspension is blockage patched to same region as second skin-sensitize test for 48 hours. In causing (22 days after treatment), 100, 20, 4, 0.8, and 0.16 v/v % ethanol suspension of 7th Sense-M or 710N-M and 100 v/v % corresponding volume BLANK ethanol solution are blockage patched for 24 hours.
Judgment is done according to judgment standard of Draize method after 24 hours and 48 hours from removal of patches.
(numbers of positive animal in group/numbers of animal in group)×100

[2] = Weight of individuals in the maximization test; format: in vivo, guinea pig
Source text: Results by Weight of Individuals

[3] = causing conc. 0.01 w/v %, judge 24 hrs.
[4] = causing conc. 0.01 w/v %, judge 48 hrs.
[5] = causing conc. 0.1 w/v %, judge 24 hrs.
[6] = causing conc. 0.1 w/v %, judge 48 hrs.

Structure (SMILES): O=[N+]([O-])c1ccc(Cl)c([N+](=O)[O-])c1 [DNCB, 1-chloro-2,4-dinitrobenzene]
- erythema evaluation point, individual animal ([1]; causing 0.01 w/v % DNCB, judge time 24 hrs.): 3 (4×) and 4
- erythema evaluation point, individual animal ([1]; causing 0.01 w/v % DNCB, judge time 48 hrs.): 3 (3×) and 4 (2×)
- erythema evaluation point, individual animal ([1]; causing 0.1 w/v % DNCB, judge time 24 hrs.): 4 (4×) and 3
- erythema evaluation point, individual animal ([1]; causing 0.1 w/v % DNCB, judge time 48 hrs.): 4
- ave. eval. (average of evaluation point) [1, 3]: 3.8
- positive ratio [1, 3]: 100
- ave. eval. (average of evaluation point) [1, 4]: 4.0
- positive ratio [1, 4]: 100
- ave. eval. (average of evaluation point) [1, 5]: 4.8
- positive ratio [1, 5]: 100
- ave. eval. (average of evaluation point) [1, 6]: 5.2
- positive ratio [1, 6]: 100
- weight of individual ([2]; 8th day): 472 and 420 and 444 and 453 and 440
- weight, group average ([2]; 8th day): 446
- weight of individual ([2]; 15th day): 521 and 426 and 470 and 496 and 485
- weight, group average ([2]; 15th day): 480
- weight of individual ([2]; 22nd day): 572 and 485 and 521 and 536 and 529
- weight, group average ([2]; 22nd day): 529
- weight of individual ([2]; 25th day): 590 and 481 and 533 and 544 and 541
- weight, group average ([2]; 25th day): 538
- weight of individual ([2]; first day): 430 and 375 and 396 and 416 and 395
- weight, group average ([2]; first day): 402
- weight of individual ([2]; starting date of previous test): 356 and 333 and 354 and 369 and 344
- weight, group average ([2]; starting date of previous test): 349
